This is an account of results in publication PMC5453931, “Cathelicidin-trypsin inhibitor loop conjugate represents a promising antibiotic candidate with protease stability” (Scientific Reports, 2017).

Converted amounts (≈) assume the structure as drawn. Where a SMILES comes first, the peptide text is derived from it. Bridges are numbered along the chain shown (N, C = ends).

The subject of one data set is Vibrio Parahaemolyticus. In words: MIC, two-fold broth microdilution. The data set is classed as cell-based. The following applies: Aquatic pathogenic bacteria; two-fold broth microdilution, 37 °C, 18 h; mean of three independent experiments in duplicates. The procedure, abridged: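 Peptides were titrated in two-fold steps against exponential-phase inocula (10^6 CFU/mL prior to 1:1 addition) in MH broth. After 18 h incubation at 37 °C with slow shaking, optical density at 595 nm was measured; averaged MICs come from three separate experiments.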

The conditions of data set [1]: 20% fresh human serum, 37 °C, colonies surviving 1 × MIC, Fig. 3B.
In the next data set the target is trypsin. In words: Trypsin inhibition assay (NBLAN hydrolysis, Dixon method). The data set is classed as biochemical. The following applies: 50 mM Tris–HCl pH 7.8, trypsin 0.1 mg/mL, 5 min pre-incubation at 37 °C, substrate NBLAN 48, 96, 192 μg/mL, 405 nm. An outline of the steps: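 Trypsin (0.1 mg/mL final) pre-incubated 5 min at 37 °C with hybrid peptide at […] final, in 50 mM Tris–HCl, pH 7.8, at room temperature. Reaction started with NBLAN at 48, 96 or 192 μg/mL final; p-nitroaniline monitored continuously at 405 nm. Ki determined by the Dixon method.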

Another data set relates to E. coli. In words: pH stability of antimicrobial activity. Format: physicochemical. The following applies: HCl or NaOH solution, 2 mg/mL, 37 °C, 24 h, then 1 × MIC for 2 h, CFU; Fig. 3C. The procedure: Peptide was dissolved in HCl solution or NaOH solution to a final concentration of 2 mg/mL with pH value ranging from 1.0 to 11.0, and incubated at 37 °C for 24 h[64]. […] The diluted aliquots were seeded at MH agar plates and the CFU were scored after 24 h incubation at 37 °C. The number of CFU grown out of MH broth without peptide was served as control.

Data set [2] has as its system Raw264.7 cells. In words: LPS-induced NO, cytokine and chemokine production (Griess reagent, ELISA). The data set is classed as cell-based, murine. The following applies: LPS 100 ng/mL, peptide 5, 10, 20 μg/mL, 24 h, Fig. 6. The procedure: RAW264.7 cells were cultured in DMEM (Gibco, Gaithersburg, USA), containing 10% fetal bovine serum, 100 U/mL streptomycin and 100 U/mL penicillin at 37 °C with 5% CO2, and plated in 24-well plate (1 × 10^6 cells/well). After adhesion, the cells were treated with LPS (100 ng/mL, from E. coli 055:B5, Sigma-Aldrich) in the absence or presence (5, 10, 20 μg/mL) of peptides for 24 h in the same condition. Untreated cells and LPS alone treated cells served as control. The NO was determined using Griess reagent (Beyotime, Jiangsu, China) according to the manufacturer’s protocol. ELISA kits (Joyee, shanghai, china) were used to detect the levels of pro-inflammatory cytokines and chemokines in RAW264.7 cell culture supernatant, including TNF-α, IL-6, IL-1β and MCP-1.

For data set [3], the system named is E. coli ATCC25922. In words: Thermal stability of antimicrobial activity. Format: physicochemical. The settings on record: 2 mg/mL in water, up to 96 h, E. coli ATCC25922, 1 × MIC, Fig. 3D. As to the method: Thermal stability of Hc-3 and hybrid peptides was examined according to the method described in our previous work[31]. Peptide was dissolved in sterile deionized water to a final concentration of 2 mg/mL, and incubated at 37 °C for 0–96 h. At each time point, the bacteria colonies of E. coli ATCC25922 survived 1 × MIC were measured.

The subject of data set [4] is Raw264.7 cells. In words: LPS-induced iNOS, cytokine and chemokine transcription (q-PCR). The data set is classed as cell-based, Murine. The settings on record: LPS 100 ng/mL, 6 h, q-PCR normalized to GAPDH; Fig. 6. As to the method: Murine macrophage Raw264.7 cells (3 × 10^5/well) were treated with series concentrations of hybrid peptides and LPS (100 ng/mL) for 6 h. Total RNA was isolated using RNAiso Plus kit (Takara) and synthesized into cDNA with PrimeScript Reverse Transcriptase (Takara). The cDNA was assessed by q-PCR using SYBR green master mix kit (Takara) on a Realplex Mastercycler (Eppendorf, Germany). Gene expression was calculated after being normalized to those of GAPDH levels by Δ Δ Ct method27. The accuracy of the amplification reactions was achieved by melt curve analysis.

The subject of data set [5] is E. coli ATCC25922. In words: Salt stability of antimicrobial activity. The data set is classed as cell-based. The following applies: 1 × MIC, Fig. 3A. The procedure: To determine the effect of salt on the antimicrobial activity of the parental and hybrid peptides, the bacteria colonies survived 1 × MIC of peptide in the presence of salt were counted. Briefly, E. coli ATCC25922 were diluted into decent concentration and mixed with each kind of peptide solution of 1 × MIC supplemented with NaCl (0, 50, 100, 150, 200 and 400 mM), respectively. […] The salt stability of the peptides was assessed by the number of colonies.

Another data set concerns E. coli 08040726. In words: Bacterial killing kinetic assay, colony counting. Format: cell-based. The procedure: The bacterial killing kinetics of the hybrid peptides against E. coli 08040726 was determined by counting the changes in the viable bacterial clones after peptide treatment. The experiment was carried out according to the method described previously with minor modifications. Fresh colonies of the bacteria were incubated in MH broth at 37 °C for 12 h and diluted to 10^6 CFU/in fresh MH broth. The hybrid peptide was added to the bacterial suspension with a final concentration of 1x and 5x corresponding MICs, and incubated at 37 °C for 0, 10, 20, 30, 45, 60, 90, 120, and 180 mins. At each time point, aliquots (50 μL) were removed and diluted with fresh MH broth for 1000 times. […] of the dilutions were coated on MH agar plates, incubated overnight at 37 °C, and the viable colonies were counted. Ampicillin was used as positive control and sterile deionized water was used as negative control.

Turning to `CC[C@H](C)[C@@H]1NC(=O)[C@H](CO)NC(=O)[C@H](CCCCN)NC(=O)[C@H]([C@@H](C)O)NC(=O)[C@H](Cc2c[nH]c3ccccc23)NC(=O)[C@@H](N)CSSC[C@@H](C(=O)N[C@@H](CCCCN)C(=O)N[C@@H](Cc2ccccc2)C(=O)N[C@@H](Cc2ccccc2)C(=O)N[C@@H](CCCCN)C(=O)N[C@@H](CCCNC(=N)N)C(=O)N[C@@H](Cc2ccccc2)C(=O)N[C@@H](Cc2ccccc2)C(=O)N[C@@H](CCCCN)C(=O)N[C@@H](CO)C(=O)N[C@@H](Cc2ccccc2)C(=O)N[C@@H](CCCNC(=N)N)C(=O)N[C@@H](CCCNC(=N)N)C(=O)N[C@@H](C)C(=O)N[C@@H](Cc2ccccc2)C(=O)N[C@@H](CCCCN)C(=O)N[C@@H](CCCCN)C(=O)N[C@@H](Cc2ccccc2)C(N)=O)NC(=O)[C@@H]2CCCN2C(=O)[C@H](CCCCN)NC(=O)[C@@H]2CCCN2C(=O)[C@@H]2CCCN2C1=O` [TIH3F] (H-CWTKSIPPKPCKFFKRFFKSFRRAFKKF-NH2; disulfide 1-11), the “MIC Vibrio Parahaemolyticus” value in the data set with Vibrio Parahaemolyticus was determined as 4.69 µg/mL (≈ 1.32 µM). In addition, in data set [1] (6 h), the “kill (%) after incubation with human serum” value worked out at 75%. Further, the “kill (%) / antimicrobial activity kept after incubation with human serum” value in data set [1] (36 h) worked out at 65%. In addition, at trypsin, the Ki worked out at 1500 nM. For the same molecule, in the data set with E. coli, the “antimicrobial activity against E. coli after incubation at pH 1.0–11.0” value was “unaffected”. For the same molecule, the “LPS-induced production of NO, TNF-α, IL-6, IL-1β, MCP-1” value with Raw264.7 cells [2] is on record as “strongest anti-inflammation effect”. Besides, in the data set on E. coli ATCC25922 [3], the “antimicrobial activity after incubation at 37 °C” value is listed as “maintained its potent antimicrobial activity”. Further, the “LPS-induced mRNA of iNOS, TNF-α, IL-1β, IL-6, MCP-1” value in the data set on Raw264.7 cells [4] is given as “strongest inhibitory effect”. Moreover, the “antimicrobial activity (kill %) in presence of salt” value in the data set with E. coli ATCC25922 [5] (50 mM NaCl, colony counting) is “not affected”. The “kill (%) in presence of salt” value with E. coli ATCC25922 [5] (NaCl increased from 100 mM up to 200 mM) is on record as “declined by half”. Further, the “killing effect in presence of salt” value in the data set with E. coli ATCC25922 [5] (NaCl raised from 100 mM to 400 mM) was “decreased by half”. The results for the “time of killing toward E. coli” value in the data set with E. coli 08040726 (1xMIC) and in the data set on E. coli 08040726 (5xMIC) were no more than 2 h and no more than 0.5 h, respectively.
